Results taken from patent US10329262B2, “Quinazolinone antibiotics” (priority 2013, dated 2019).
≈ marks a conversion by molar mass, not a printed value. Read-outs that look alike come from different tables or passages of the source.

Key:
S. aureus VRS1 = assay: MIC, CLSI broth microdilution, S. aureus VRS1; type: cell-based, Staphylococcus aureus; conditions: for MIC: Table 2, S. aureus VRS1; for In vitro AB activity (MIC): Table 2.1, S. aureus VRS1
Description: (§1) MICs were evaluated following the CLSI microdilution method in BBL™ Mueller-Hinton II broth (Wikler et al., Clinical Laboratory Standards Institute Document M7-A7, 29 (2009)). Briefly, two-fold serial dilutions of compound were prepared in triplicate in 96-well plates and inoculated with 5×10^5 cfu/mL of the bacterial suspension. Plates were incubated at 37° C. for 16-20 hours.

S. aureus NRS100 = assay: MIC, CLSI broth microdilution, S. aureus NRS100; type: cell-based, Staphylococcus aureus; conditions: for MIC: Table 2, S. aureus NRS100; for In vitro AB activity (MIC): Table 2.1, S. aureus NRS100
Description: as §1

S. aureus NRS123 = assay: MIC, broth microdilution, S. aureus NRS123; type: cell-based; conditions: Staphylococcus aureus
Description: as §1

[1] = tested on: S. aureus ATCC 29213 (MSSA); assay: MIC, CLSI broth microdilution, S. aureus ATCC 29213; type: cell-based, Staphylococcus aureus; conditions: for In vitro AB activity (MIC): Table 2.1, S. aureus ATCC 29213; for MIC (w/ BSA): S. aureus ATCC 29213, in the presence of bovine serum albumin; for MIC: S. aureus strain ATCC 29213 (MSSA)
Description: as §1

[2] = tested on: S. epidermidis ATCC 35547; assay: MIC, CLSI broth microdilution, S. epidermidis ATCC 35547; type: cell-based; conditions: for MIC: Table 2, S. epidermidis ATCC 35547
Description: as §1

[3] = tested on: S. haemolyticus ATCC 29970; assay: MIC, CLSI broth microdilution, S. haemolyticus ATCC 29970; type: cell-based; conditions: for MIC: Table 2, S. haemolyticus ATCC 29970; for In vitro AB activity (MIC): Table 2.1, S. haemolyticus ATCC 29970
Description: as §1

S. aureus NRS120 = assay: MIC, CLSI broth microdilution, S. aureus NRS120; type: cell-based, Staphylococcus aureus; conditions: for MIC: Table 2, S. aureus NRS120; for In vitro AB activity (MIC): Table 2.1, S. aureus NRS120
Description: as §1

S. aureus VRS2 = assay: MIC, CLSI broth microdilution, S. aureus VRS2; type: cell-based, Staphylococcus aureus; conditions: for MIC: Table 2, S. aureus VRS2; for In vitro AB activity (MIC): Table 2.1, S. aureus VRS2
Description: as §1

S. aureus NRS119 = assay: MIC, CLSI broth microdilution, S. aureus NRS119; type: cell-based, Staphylococcus aureus; conditions: for MIC: Table 2, S. aureus NRS119; for In vitro AB activity (MIC): Table 2.1, S. aureus NRS119
Description: as §1

S. aureus NRS70 = assay: MIC, broth microdilution, S. aureus NRS70; type: cell-based, Staphylococcus aureus; conditions: for MIC: Staphylococcus aureus; for In vitro AB activity (MIC): Table 2.1, S. aureus NRS70
Description: as §1

S. aureus NRS128 = assay: MIC, CLSI broth microdilution, S. aureus NRS128; type: cell-based, Staphylococcus aureus; conditions: Table 2.1, S. aureus NRS128
Description: as §1

MRSA ATCC 27660 = assay: Mouse peritonitis model of MRSA infection; type: in vivo, mice; conditions: n = 6, 48 h
Description: We evaluated several compounds in in vivo mouse infection models, as well as in pharmacokinetic (PK) studies in mice (Table 1). The in vivo efficacy was determined using the rapid mouse peritonitis model of infection, in which the end point is death or survival in 48 hours. We initially dosed the compounds intravenously (iv) at a single dose level. If the compound has good in vivo efficacy after iv administration, we then evaluated efficacy at five dose levels. We also investigated in vivo efficacy after oral (po) administration.
Groups (n=6/group) of mice were infected with MRSA (0.5 mL of ATCC 27660 at a final concentration of 5×10^7 CFU/mL in 5% porcine mucin) intraperitoneally (ip). Following infection, mice were given iv doses by tail vein injection of compound 2, vancomycin (5 mg/kg, positive control), or vehicle at 30 min and 4.5 h after infection. The number of surviving mice was monitored for 48 h. The negative control (vehicle) typically results in the death of all mice. Quinazolinone 2 was dissolved in saline, sterile-filtered, and administered at doses of 2.5, 5, 7.5, 10, 20, and 30 mg/kg. The ED50 value was calculated using GraphPad prism 5.

Pharmacokinetics in mice = conditions: Table 1, ICR female mice, single dose iv
Description: We conducted first fast PK studies (n=2 mice per time point, 5 time points) dosing the compounds iv, followed by full PK studies for selected compounds (n=3 mice per time point, 10-12 time points per route of administration, iv and po).
A single dose of compound 2 was administered to mice (n=3 per time point) by tail vein injection or by oral gavage at 10 mg/kg. Blood was collected by cardiac puncture in heparinized syringes at 2, 5, 20, and 40 min and at 1, 2, 3, 4, 8, 18, and 24 h after iv dosing and at 0.5, 1, 2, 3, 4, 6, 9, 24, and 30 h after po dosing. Blood was centrifuged to obtain plasma. A 50-μL aliquot of plasma was mixed with 100 μL of acetonitrile containing internal standard (5 μM final concentration), followed by centrifugation at 20,000 g for 15 min. The supernatant was analyzed by reverse-phase UPLC. PK parameters were calculated as described in the Plasma protein binding and Pharmacokinetics sections below (see also Gooyit et al. J. Med. Chem. 54, 6676-6690 (2011)).
The area under the concentration-time curve up to the last quantifiable sampling time (AUC0-last) was calculated by the trapezoidal rule. AUC0-∞ was calculated as AUC0-last+(Clast/k), where Clast is the concentration at the last quantifiable sampling time and k is the elimination rate constant. The concentration at time=0 (C0) was estimated from the first sampling times by back-extrapolation using log-linear regression analysis. Half-lives (t1/2α and t1/2β) were estimated from the linear portion of the initial or terminal concentration-time data by linear regression, where the slope of the line was the rate constant k and t1/2α=ln 2/k. Volume of distribution (Vd) was calculated as the dose divided by the initial concentration (C0). Clearance (CL) was calculated from the dose divided by AUC0-∞. Oral bioavailability (F) was calculated by dividing the AUCpo by the AUCiv, as equivalent iv and po doses were administered.

[4] = Staphylococcus aureus, read-out: MIC
[5] = Table 2, S. aureus NRS123, read-out: MIC
[6] = Staphylococcus haemolyticus, ATCC29970, read-out: MIC
[7] = Table 2, S. aureus NRS70, read-out: MIC
[8] = 10 mg/kg iv at 30 min and 4.5 hr after infection
[9] = 5 mg/kg iv at 30 min and 4.5 hr after infection
[10] = NRS123, Table 3, single agent, read-out: MIC NRS123
[11] = NRS70, Table 3, single agent, read-out: MIC NRS70

Compound: CC(=O)NC[C@H]1CN(c2ccc(N3CCOCC3)c(F)c2)C(=O)O1 [linezolid]
- MIC (S. aureus VRS1; [4]): 2 µg/mL (≈ 5.93 µM)
- In vitro AB activity (MIC) (S. aureus VRS1): 2 µg/mL
- MIC (S. aureus NRS100; [4]): 2 µg/mL (≈ 5.93 µM)
- In vitro AB activity (MIC) (S. aureus NRS100): 2 µg/mL
- MIC (S. aureus NRS123; [5]): 2 µg/mL (≈ 5.93 µM)
- In vitro AB activity (MIC) [1]: 4 µg/mL
- MIC ([2]; Staphylococcus epidermidis, ATCC35547, read-out: MIC): 1 µg/mL (≈ 2.96 µM)
- In vitro AB activity (MIC) ([2]; Table 2.1, S. epidermidis ATCC 35547): 1 µg/mL
- MIC [3, 6]: 1 µg/mL (≈ 2.96 µM)
- In vitro AB activity (MIC) [3]: 2 µg/mL
- MIC (S. aureus NRS120; [4]): 64 µg/mL (≈ 190 µM)
- In vitro AB activity (MIC) (S. aureus NRS120): 32 µg/mL
- MIC (S. aureus VRS2; [4]): 1 µg/mL (≈ 2.96 µM)
- In vitro AB activity (MIC) (S. aureus VRS2): 2 µg/mL
- MIC (S. aureus NRS119; [4]): 64 µg/mL (≈ 190 µM)
- In vitro AB activity (MIC) (S. aureus NRS119): 32 µg/mL
- MIC (S. aureus NRS70; [7]): 1 µg/mL (≈ 2.96 µM)
- In vitro AB activity (MIC) (S. aureus NRS70): 1 µg/mL
- In vitro AB activity (MIC) (S. aureus NRS128): 1 µg/mL

Compound: CS(=O)(=O)Nc1cccc(-n2c(/C=C/c3ccc(F)cc3)nc3ccccc3c2=O)c1 [Compound 6]
- MIC (w/ BSA) [1]: 1 µg/mL
- MIC [1]: 0.125 µg/mL (≈ 0.287 µM)
- In Vivo Efficacy (survived/total mice) (MRSA ATCC 27660; [8]): 0/6 @ 10 mg/kg
- AUC (iv) (Pharmacokinetics in mice): AUC = 819 μg.min/mL
- CL (Pharmacokinetics in mice): CL = 28.0 mL/min/kg
- Vd (Pharmacokinetics in mice): Vd = 91.8 mL

Compound: CC(=O)Nc1cccc(-n2c(/C=C/c3ccc(C#N)cc3)nc3ccccc3c2=O)c1 [Compound 8]
- MIC (S. aureus VRS1): 4 µg/mL (≈ 9.84 µM)
- MIC (S. aureus NRS100): 1 µg/mL (≈ 2.46 µM)
- MIC (w/ BSA) [1]: 2 µg/mL
- MIC [1]: 0.25 µg/mL (≈ 0.615 µM)
- In Vivo Efficacy (survived/total mice) (MRSA ATCC 27660; [9]): 1/6 @ 5 mg/kg
- AUC (iv) (Pharmacokinetics in mice): AUC = 1187 μg.min/mL
- CL (Pharmacokinetics in mice): CL = 131 mL/min/kg
- Vd (Pharmacokinetics in mice): Vd = 107 mL
- MIC [2]: 0.06 µg/mL (≈ 0.148 µM)
- MIC [3]: 0.25 µg/mL (≈ 0.615 µM)
- MIC (S. aureus NRS120): 0.25 µg/mL (≈ 0.615 µM)
- MIC (S. aureus VRS2): 0.125 µg/mL (≈ 0.308 µM)
- MIC (S. aureus NRS119): 0.25 µg/mL (≈ 0.615 µM)

Compound: CO/N=C(\C(=O)N[C@@H]1C(=O)N2C(C(=O)[O-])=C(C[N+]3(C)CCCC3)CS[C@H]12)c1csc(N)n1 [cefepime]
- MIC (S. aureus NRS123; [10]): 32 µg/mL (≈ 66.6 µM)
- MIC (S. aureus NRS70; [11]): 64 µg/mL (≈ 133 µM)

Compound: Cc1onc(-c2ccccc2)c1C(=O)N[C@@H]1C(=O)N2[C@@H]1SC(C)(C)[C@@H]2C(=O)O [oxacillin]
- MIC (S. aureus VRS1; [4]): 512 µg/mL (≈ 1280 µM)
- In vitro AB activity (MIC) (S. aureus VRS1): 512 µg/mL
- MIC (S. aureus NRS100; [4]): 512 µg/mL (≈ 1280 µM)
- In vitro AB activity (MIC) (S. aureus NRS100): 512 µg/mL
- MIC (S. aureus NRS123; [10]): 32 µg/mL (≈ 79.7 µM)
- MIC (S. aureus NRS123; [5]): 32 µg/mL (≈ 79.7 µM)
- In vitro AB activity (MIC) [1]: 0.25 µg/mL
- MIC [3, 6]: 0.25 µg/mL (≈ 0.623 µM)
- In vitro AB activity (MIC) [3]: 0.25 µg/mL
- MIC (S. aureus NRS120; [4]): 512 µg/mL (≈ 1280 µM)
- In vitro AB activity (MIC) (S. aureus NRS120): 512 µg/mL
- MIC (S. aureus VRS2; [4]): 256 µg/mL (≈ 638 µM)
- In vitro AB activity (MIC) (S. aureus VRS2): 256 µg/mL
- MIC (S. aureus NRS119; [4]): 512 µg/mL (≈ 1280 µM)
- In vitro AB activity (MIC) (S. aureus NRS119): 512 µg/mL
- MIC (S. aureus NRS70; [11]): 64 µg/mL (≈ 159 µM)
- MIC (S. aureus NRS70; [7]): 32 µg/mL (≈ 79.7 µM)
- In vitro AB activity (MIC) (S. aureus NRS70): 32 µg/mL
- In vitro AB activity (MIC) (S. aureus NRS128): 0.5 µg/mL

Compound: Cc1nc2ccccc2c(=O)o1 [Compound 3]
- MIC (w/ BSA) [1]: 4 µg/mL
- MIC [1]: 0.25 µg/mL (≈ 1.55 µM)
- In Vivo Efficacy (survived/total mice) (MRSA ATCC 27660; [9]): 1/6 @ 5 mg/kg
- AUC (iv) (Pharmacokinetics in mice): AUC = 466 μg.min/mL
- CL (Pharmacokinetics in mice): CL = 10.7 mL/min/kg
- Vd (Pharmacokinetics in mice): Vd = 8.9 mL

Compound: CC(=O)Nc1cccc(-n2c(/C=C/c3ccc(F)cc3)nc3ccccc3c2=O)c1 [Compound 5]
- MIC (w/ BSA) [1]: 8 µg/mL
- MIC [1]: 1 µg/mL (≈ 2.5 µM)
- In Vivo Efficacy (survived/total mice) (MRSA ATCC 27660; [8]): 2/6 @ 10 mg/kg
- AUC (iv) (Pharmacokinetics in mice): AUC = 284 μg.min/mL
- CL (Pharmacokinetics in mice): CL = 88.2 mL/min/kg
- Vd (Pharmacokinetics in mice): Vd = 55.0 mL
